From patent US20090004106A1, “Radioligands for the 5 -Ht1b Receptor” (priority 2006, published 2009)

Test system: 5-HT1B receptor
Test: PET measurements in monkeys (radioligand brain uptake and 5-HT1B receptor binding)
Type: in vivo, Cynomolgus monkey
Method: Cynomolgus monkey can be used to determine the suitability of [^11C] labeled raidoligands as a radioligand for PET-determination of 5HT^1B-receptor binding and occupancy. Anaesthesia can be induced and maintained by repeated intramuscular injections of a mixture of ketamine (3-4 mg/kg per h Ketalar, Parke-Davis) and xylazine hydrochloride (1-2 mg/kg per h Rompun® Vet., Bayer, Sweden) for the duration of each measurement. A fixation device can be used for the positioning of the monkey head during the PET-measurements. Body temperature can be controlled by Bair Hugger—Model 505 (Arizant Healthcare Inc, MN).
Radioactivity in the brain can be measured with the Siemens ECAT Exact HR47 system that can be used in the three-dimensional model. The system covers an axial distance of 15 cm. The transaxial resolution of the reconstructed images is about 3.8 mm full width at half-maximum (FWHM) and the axial resolution 4.0 mm FWHM. […]
In each PET-measurement a sterile physiological phosphate buffer (pH=7.4) solution containing about 1.4 mCi (50 MBq) of [^11C] labeled compound can be injected as a bolus into a sural vein during 2 s with simultaneous start of PET-data acquisition. Radioactivity in brain can be measured continuously for 93 minutes according to a pre-programmed series of 15 frames starting immediately after IV injection of [^11C] labeled compound. […]
During all PET measurements venous blood samples (about 0.5 ml) can be taken at 4 time points (at about 4, 15, 30 and 45 minutes) and plasma radioactivity concentration determined in a well counter, cross-calibrated with the camera. […]
The ROIs can be drawn on the PET summation images representing radioactivity measured from 9 minutes after intravenous injection to the end of the measurement. […] Radioactivity is calculated for the sequence of time frames, corrected for the radioactivity decay, and plotted versus time. For each region a time-activity curve can be generated and radioactivity expressed as nCi/ml. […]

[^11C] 8-(4-methylpiperazin-1-yl)-5-methylchrom-2-en-4-one-2-(4-morpholinophenyl)carboxamide) [Example 3]
specific binding to the areas of interest (primate brain PET, non specific defined as cerebellum): binds specifically to the areas of interest | specific to non-specific ratios (primate brain PET, ratio of ROI to cerebellum (non specific defined as cerebellum)): high enough specific to non-specific ratios | entry of radioligand into brain (primate brain, PET, IV bolus of [11C] labeled compound): rapidly entered the primate brain
